Assay results: the NIST ThermoML archive (doi:10.1016/j.fluid.2018.04.024)
Numbers after ± are expanded uncertainties.

details: 353.15 K; 100 kPa; Liquid; Vibrating tube method

| mass density | Compound |
| --- | --- |
| 829.58 ± 0.86 kg/m3 | CCCC(=O)OC [methyl butanoate] |
| 824.35 ± 0.85 kg/m3 | CCCCCCC(=O)OC [methyl heptanoate] |
| 825.57 ± 0.85 kg/m3 | CCCCCC(=O)OC [methyl hexanoate] |
| 822.78 ± 0.85 kg/m3 | CCCCCCCCC(=O)OC [methyl nonanoate] |

same assay, conditions: 353.15 K; 1000 kPa; Liquid; Vibrating tube method

| mass density | Compound |
| --- | --- |
| 830.8 ± 0.9 kg/m3 | CCCC(=O)OC [methyl butanoate] |
| 825.27 ± 0.86 kg/m3 | CCCCCCC(=O)OC [methyl heptanoate] |
| 826.5 ± 0.86 kg/m3 | CCCCCC(=O)OC [methyl hexanoate] |
| 823.57 ± 0.85 kg/m3 | CCCCCCCCC(=O)OC [methyl nonanoate] |

same assay, conditions: 353.15 K; 3000 kPa; Liquid; Vibrating tube method

| mass density | Compound |
| --- | --- |
| 833.71 ± 0.87 kg/m3 | CCCC(=O)OC [methyl butanoate] |
| 827.61 ± 0.86 kg/m3 | CCCCCCC(=O)OC [methyl heptanoate] |
| 828.96 ± 0.86 kg/m3 | CCCCCC(=O)OC [methyl hexanoate] |
| 825.7 ± 0.86 kg/m3 | CCCCCCCCC(=O)OC [methyl nonanoate] |

same assay, conditions: 353.15 K; 5000 kPa; Liquid; Vibrating tube method

| mass density | Compound |
| --- | --- |
| 836.31 ± 0.87 kg/m3 | CCCC(=O)OC [methyl butanoate] |
| 829.66 ± 0.87 kg/m3 | CCCCCCC(=O)OC [methyl heptanoate] |
| 831.13 ± 0.87 kg/m3 | CCCCCC(=O)OC [methyl hexanoate] |
| 827.54 ± 0.86 kg/m3 | CCCCCCCCC(=O)OC [methyl nonanoate] |

same assay, conditions: 353.15 K; 10000 kPa; Liquid; Vibrating tube method

| mass density | Compound |
| --- | --- |
| 842.65 ± 0.89 kg/m3 | CCCC(=O)OC [methyl butanoate] |
| 834.76 ± 0.88 kg/m3 | CCCCCCC(=O)OC [methyl heptanoate] |
| 836.55 ± 0.88 kg/m3 | CCCCCC(=O)OC [methyl hexanoate] |
| 832.17 ± 0.88 kg/m3 | CCCCCCCCC(=O)OC [methyl nonanoate] |

same assay, conditions: 353.15 K; 15000 kPa; Liquid; Vibrating tube method

| mass density | Compound |
| --- | --- |
| 848.71 ± 0.9 kg/m3 | CCCC(=O)OC [methyl butanoate] |
| 839.63 ± 0.89 kg/m3 | CCCCCCC(=O)OC [methyl heptanoate] |
| 841.75 ± 0.89 kg/m3 | CCCCCC(=O)OC [methyl hexanoate] |
| 836.71 ± 0.89 kg/m3 | CCCCCCCCC(=O)OC [methyl nonanoate] |

same assay, conditions: 353.15 K; 20000 kPa; Liquid; Vibrating tube method

| mass density | Compound |
| --- | --- |
| 854.19 ± 0.91 kg/m3 | CCCC(=O)OC [methyl butanoate] |
| 844.11 ± 0.9 kg/m3 | CCCCCCC(=O)OC [methyl heptanoate] |
| 846.44 ± 0.91 kg/m3 | CCCCCC(=O)OC [methyl hexanoate] |
| 840.79 ± 0.9 kg/m3 | CCCCCCCCC(=O)OC [methyl nonanoate] |

same assay, conditions: 353.15 K; 25000 kPa; Liquid; Vibrating tube method

| mass density | Compound |
| --- | --- |
| 859.51 ± 0.92 kg/m3 | CCCC(=O)OC [methyl butanoate] |
| 848.48 ± 0.92 kg/m3 | CCCCCCC(=O)OC [methyl heptanoate] |
| 851.08 ± 0.92 kg/m3 | CCCCCC(=O)OC [methyl hexanoate] |
| 844.86 ± 0.92 kg/m3 | CCCCCCCCC(=O)OC [methyl nonanoate] |

same assay, conditions: 353.15 K; 30000 kPa; Liquid; Vibrating tube method

| mass density | Compound |
| --- | --- |
| 864.51 ± 0.94 kg/m3 | CCCC(=O)OC [methyl butanoate] |
| 852.65 ± 0.93 kg/m3 | CCCCCCC(=O)OC [methyl heptanoate] |
| 855.46 ± 0.93 kg/m3 | CCCCCC(=O)OC [methyl hexanoate] |
| 848.7 ± 0.93 kg/m3 | CCCCCCCCC(=O)OC [methyl nonanoate] |

same assay, conditions: 353.15 K; 35000 kPa; Liquid; Vibrating tube method

| mass density | Compound |
| --- | --- |
| 869.35 ± 0.95 kg/m3 | CCCC(=O)OC [methyl butanoate] |
| 856.65 ± 0.94 kg/m3 | CCCCCCC(=O)OC [methyl heptanoate] |
| 859.68 ± 0.94 kg/m3 | CCCCCC(=O)OC [methyl hexanoate] |
| 852.44 ± 0.94 kg/m3 | CCCCCCCCC(=O)OC [methyl nonanoate] |

same assay, conditions: 353.15 K; 40000 kPa; Liquid; Vibrating tube method

| mass density | Compound |
| --- | --- |
| 873.76 ± 0.96 kg/m3 | CCCC(=O)OC [methyl butanoate] |
| 860.37 ± 0.95 kg/m3 | CCCCCCC(=O)OC [methyl heptanoate] |
| 863.59 ± 0.95 kg/m3 | CCCCCC(=O)OC [methyl hexanoate] |
| 855.87 ± 0.95 kg/m3 | CCCCCCCCC(=O)OC [methyl nonanoate] |

same assay, conditions: 353.15 K; 50000 kPa; Liquid; Vibrating tube method

| mass density | Compound |
| --- | --- |
| 882.24 ± 0.98 kg/m3 | CCCC(=O)OC [methyl butanoate] |
| 867.57 ± 0.98 kg/m3 | CCCCCCC(=O)OC [methyl heptanoate] |
| 871.08 ± 0.98 kg/m3 | CCCCCC(=O)OC [methyl hexanoate] |
| 862.53 ± 0.98 kg/m3 | CCCCCCCCC(=O)OC [methyl nonanoate] |

same assay, conditions: 353.15 K; 60000 kPa; Liquid; Vibrating tube method

| mass density | Compound |
| --- | --- |
| 890.18 ± 1 kg/m3 | CCCC(=O)OC [methyl butanoate] |
| 874.32 ± 1 kg/m3 | CCCCCCC(=O)OC [methyl heptanoate] |
| 878.16 ± 1 kg/m3 | CCCCCC(=O)OC [methyl hexanoate] |
| 868.9 ± 1 kg/m3 | CCCCCCCCC(=O)OC [methyl nonanoate] |

same assay, conditions: 363.15 K; 100 kPa; Liquid; Vibrating tube method

| mass density | Compound |
| --- | --- |
| 817.31 ± 0.85 kg/m3 | CCCC(=O)OC [methyl butanoate] |
| 815.19 ± 0.84 kg/m3 | CCCCCCC(=O)OC [methyl heptanoate] |
| 815.64 ± 0.85 kg/m3 | CCCCCC(=O)OC [methyl hexanoate] |
| 814.24 ± 0.84 kg/m3 | CCCCCCCCC(=O)OC [methyl nonanoate] |

same assay, conditions: 363.15 K; 1000 kPa; Liquid; Vibrating tube method

| mass density | Compound |
| --- | --- |
| 818.87 ± 0.85 kg/m3 | CCCC(=O)OC [methyl butanoate] |
| 816.36 ± 0.85 kg/m3 | CCCCCCC(=O)OC [methyl heptanoate] |
| 816.87 ± 0.85 kg/m3 | CCCCCC(=O)OC [methyl hexanoate] |
| 815.28 ± 0.85 kg/m3 | CCCCCCCCC(=O)OC [methyl nonanoate] |

same assay, conditions: 363.15 K; 3000 kPa; Liquid; Vibrating tube method

| mass density | Compound |
| --- | --- |
| 821.94 ± 0.86 kg/m3 | CCCC(=O)OC [methyl butanoate] |
| 818.75 ± 0.85 kg/m3 | CCCCCCC(=O)OC [methyl heptanoate] |
| 819.47 ± 0.85 kg/m3 | CCCCCC(=O)OC [methyl hexanoate] |
| 817.47 ± 0.85 kg/m3 | CCCCCCCCC(=O)OC [methyl nonanoate] |

same assay, conditions: 363.15 K; 5000 kPa; Liquid; Vibrating tube method

| mass density | Compound |
| --- | --- |
| 824.91 ± 0.86 kg/m3 | CCCC(=O)OC [methyl butanoate] |
| 821 ± 0.86 kg/m3 | CCCCCCC(=O)OC [methyl heptanoate] |
| 821.87 ± 0.86 kg/m3 | CCCCCC(=O)OC [methyl hexanoate] |
| 819.49 ± 0.86 kg/m3 | CCCCCCCCC(=O)OC [methyl nonanoate] |

same assay, conditions: 363.15 K; 10000 kPa; Liquid; Vibrating tube method

| mass density | Compound |
| --- | --- |
| 831.48 ± 0.88 kg/m3 | CCCC(=O)OC [methyl butanoate] |
| 826.14 ± 0.87 kg/m3 | CCCCCCC(=O)OC [methyl heptanoate] |
| 827.32 ± 0.87 kg/m3 | CCCCCC(=O)OC [methyl hexanoate] |
| 824.1 ± 0.87 kg/m3 | CCCCCCCCC(=O)OC [methyl nonanoate] |

same assay, conditions: 363.15 K; 15000 kPa; Liquid; Vibrating tube method

| mass density | Compound |
| --- | --- |
| 838.19 ± 0.89 kg/m3 | CCCC(=O)OC [methyl butanoate] |
| 831.57 ± 0.89 kg/m3 | CCCCCCC(=O)OC [methyl heptanoate] |
| 833.11 ± 0.89 kg/m3 | CCCCCC(=O)OC [methyl hexanoate] |
| 829.08 ± 0.88 kg/m3 | CCCCCCCCC(=O)OC [methyl nonanoate] |

same assay, conditions: 363.15 K; 20000 kPa; Liquid; Vibrating tube method

| mass density | Compound |
| --- | --- |
| 843.84 ± 0.91 kg/m3 | CCCC(=O)OC [methyl butanoate] |
| 836.11 ± 0.9 kg/m3 | CCCCCCC(=O)OC [methyl heptanoate] |
| 837.93 ± 0.9 kg/m3 | CCCCCC(=O)OC [methyl hexanoate] |
| 833.26 ± 0.9 kg/m3 | CCCCCCCCC(=O)OC [methyl nonanoate] |

same assay, conditions: 363.15 K; 25000 kPa; Liquid; Vibrating tube method

| mass density | Compound |
| --- | --- |
| 849.26 ± 0.92 kg/m3 | CCCC(=O)OC [methyl butanoate] |
| 840.56 ± 0.91 kg/m3 | CCCCCCC(=O)OC [methyl heptanoate] |
| 842.64 ± 0.91 kg/m3 | CCCCCC(=O)OC [methyl hexanoate] |
| 837.27 ± 0.91 kg/m3 | CCCCCCCCC(=O)OC [methyl nonanoate] |

same assay, conditions: 363.15 K; 30000 kPa; Liquid; Vibrating tube method

| mass density | Compound |
| --- | --- |
| 854.68 ± 0.93 kg/m3 | CCCC(=O)OC [methyl butanoate] |
| 845.01 ± 0.93 kg/m3 | CCCCCCC(=O)OC [methyl heptanoate] |
| 847.27 ± 0.93 kg/m3 | CCCCCC(=O)OC [methyl hexanoate] |
| 841.4 ± 0.92 kg/m3 | CCCCCCCCC(=O)OC [methyl nonanoate] |

same assay, conditions: 363.15 K; 35000 kPa; Liquid; Vibrating tube method

| mass density | Compound |
| --- | --- |
| 859.76 ± 0.94 kg/m3 | CCCC(=O)OC [methyl butanoate] |
| 849.23 ± 0.94 kg/m3 | CCCCCCC(=O)OC [methyl heptanoate] |
| 851.7 ± 0.94 kg/m3 | CCCCCC(=O)OC [methyl hexanoate] |
| 845.31 ± 0.94 kg/m3 | CCCCCCCCC(=O)OC [methyl nonanoate] |

same assay, conditions: 363.15 K; 40000 kPa; Liquid; Vibrating tube method

| mass density | Compound |
| --- | --- |
| 864.61 ± 0.95 kg/m3 | CCCC(=O)OC [methyl butanoate] |
| 853.33 ± 0.95 kg/m3 | CCCCCCC(=O)OC [methyl heptanoate] |
| 856.02 ± 0.95 kg/m3 | CCCCCC(=O)OC [methyl hexanoate] |
| 849.11 ± 0.95 kg/m3 | CCCCCCCCC(=O)OC [methyl nonanoate] |

same assay, conditions: 363.15 K; 50000 kPa; Liquid; Vibrating tube method

| mass density | Compound |
| --- | --- |
| 873.56 ± 0.98 kg/m3 | CCCC(=O)OC [methyl butanoate] |
| 860.82 ± 0.98 kg/m3 | CCCCCCC(=O)OC [methyl heptanoate] |
| 863.88 ± 0.98 kg/m3 | CCCCCC(=O)OC [methyl hexanoate] |
| 855.98 ± 0.98 kg/m3 | CCCCCCCCC(=O)OC [methyl nonanoate] |

same assay, conditions: 363.15 K; 60000 kPa; Liquid; Vibrating tube method

| mass density | Compound |
| --- | --- |
| 881.85 ± 1 kg/m3 | CCCC(=O)OC [methyl butanoate] |
| 867.91 ± 1 kg/m3 | CCCCCCC(=O)OC [methyl heptanoate] |
| 871.24 ± 1 kg/m3 | CCCCCC(=O)OC [methyl hexanoate] |
| 862.59 ± 1 kg/m3 | CCCCCCCCC(=O)OC [methyl nonanoate] |
